The text below walks through data of US10001485B2, “Methods for sensitizing a quiescent cancer stem cell to a BCR-ABL inhibitor” (The Regents of the University of California, priority 2011, dated 2018).

The subject of test [1] is BC LSC (human BC CML CD34+CD38+ progenitors). Description: BC LSC engraftment in vivo (FACS) in mice transplanted with human BC CML CD34+ cells. Also noted: species or system RAG2−/−γc−/− mice. The settings on record: for Mean (SEM) engraftment of CD34+CD38+ cells, Blood / Mean (SEM) engraftment of CD34+CD38+ cells, Marrow / Mean (SEM) engraftment of CD34+CD38+ cells, Spleen: 2 weeks; for effect on marrow LSC engraftment compared to vehicle treated controls: lower doses: sabutoclax 1.25 mg/kg, dasatinib 25 mg/kg. The source says:
(§1) Immunocompromised RAG2^−/−yc^−/− mice were bred and maintained in the University of California San Diego Moores Cancer Center vivarium. Neonatal mice were transplanted intrahepatically with 50,000-200,000 CD34^+ cells according to our previously published methods (see Jaiswal, S. et al. cited above and Jamieson, C. H., et al. cited above). Transplanted mice were screened for tumor formation or human engraftment in peripheral blood by FACS at 6-8 weeks post-transplant. Upon detection of tumors, peripheral blood engraftment, or at 8-12 weeks post-transplant engrafted mice were treated for 2 weeks with dasatinib (daily, 50 mg/kg/day in 50% PEG, 50% PBS by oral gavage), sabutoclax (3 days per week, 5 mg/kg/day in 10% EtOH, 10% Cremaphor EL (Sigma Aldrich) 80% PBS by IP injection), or drug vehicles. Twenty-four hours post-treatment (10-14 weeks post-transplant), mice were euthanized and single cell suspensions of hematopoietic tissues were analyzed for human engraftment by FACS as described previously (see Jaiswal, S. et al. and Jamieson, C. H., et al. cited above). For in vivo combination studies, dasatinib was used at 25 or 50 mg/kg while sabutclax was used at 1.25 or 2.5 mg/kg with the same dosing regimen described above. For serial transplantation, a mix of whole mouse bone marrows was made from mice in the same treatment group. Total bone marrow cells were then counted by using Guava ViaCount Reagent and analysis on a Guava PCA system (Millipore), and transplanted in equal numbers into secondary neonatal recipients by intrahepatic injection. 250,000 whole bone marrow cells per mouse were injected.

For a further test, the system named is BC LSC. Nature of the test: Serial transplantation of treated bone marrow into secondary recipients, survival. The class given is in vivo, RAG2−/−γc−/− mice.
Description: as §1

The test system of the next test is BC LSC-engrafted marrow. Description: TUNEL apoptosis analysis of engrafted bone marrow. The settings on record: following sabutoclax treatment. The class given is in vivo, RAG2−/−γc−/− mice. The source says:
For apoptosis analysis, bone marrows are stained using the ApopTag fluorescein in situ TUNEL apoptosis detection kit (Chemicon, #S7110) following the manufacturer's protocol. Sections are mounted as above. Images are acquired using an Applied Imaging Ariol SL-50 automated scanning microscope and image analysis system.

The subject of another test is marrow-engrafted BC LSC. Nature of the test: FACS cell cycle analysis (Ki-67/7-AAD) of bone marrow engrafted BC CML cells. The class given is in vivo, RAG2−/−γc−/− mice. The settings on record: FIG. 7. An excerpt: Single cell suspensions of bone marrow cells from mice treated with sabutoclax or vehicle were immunostained with Alexa405-conjugated anti-human CD45 (Invitrogen), Alexa647-anti-human CD38 (Ab Serotec) and biotin-anti-human CD34 (Invitrogen) plus Alexa488-strepavidin (Invitrogen) in 2% fetal bovine serum/PBS-followed by live cell staining using the LIVE/DEAD® Fixable Near-IR Dead Cell Stain Kit (Invitrogen). Surface stained cells were then fixed in 70% ethanol overnight. […] Stained samples were analyzed using a FACSAria and FlowJo.

A further test deals with BCL2 and MCL1. Description: Bone marrow BCL2, MCL1 and Ki67 IHC analysis of treated engrafted marrow. The class given is in vivo, RAG2−/−γc−/− mice. The settings on record: following sabutoclax treatment; data not shown. As to the method:
For IHC, femurs were harvested from transplanted, treated animals, fixed and decalcified in Cal-Ex II (Fisher Scientific, Fair Lawn, N.J.) for 48 hrs, followed by standard tissue processing, paraffin-embedding and sectioning. Paraffin tissue sections were deparaffinized, rehydrated, and boiled in antigen retrieval solution (BD, California) (pH 6.0) for 10 min to retrieve antigen. Tissues were blocked with 5% bovine serum albumin (BSA) and 0.25% Triton X-100 in PBS for 30 min and incubated with primary antibody in PBS with 1% BSA at 4° C. for 16 h. Primary antibodies used were human CD45 (Abcam) and ki67 (BD). IHC staining was then carried out with LSAB System-HRP Kit (Dako Cytomation, Hamburg, Germany) according to manufacturer's protocol using methyl green (Sigma Aldrich) as counterstaining. […] All sections were mounted before examination using a Nikon Eclipse E600 microscope. […]
Bone specimens were fixed and mildly decalcified in Bouin's solution (Sigma-Aldrich, St. Louis, Mo.) for 8 h at room temperature, then postfixed in zinc-containing buffered formalin (Z-Fix; Anatech Ltd., Battle Creek, Mich.) for 3 days at 4° C., and embedded in paraffin. […] The Spectrum Analysis algorithm package and ImageScope analysis software (version 9; Aperio Technologies, Inc.) were applied to quantify IHC stainings.

Where [2] appears, read: High dose treatment (sabutoclax 2.5 mg/kg, dasatinib 50 mg/kg).
[3] abbreviates: Low dose treatment (sabutoclax 1.25 mg/kg, dasatinib 25 mg/kg).

With `Cc1nc(Nc2ncc(C(=O)Nc3c(C)cccc3Cl)s2)cc(N2CCN(CCO)CC2)n1` [Dasatinib, dasatinib], the “Mean (SEM) engraftment of CD34+CD38+ cells, Blood” value (shortened to “Mean (SEM) engraftment … Blood”) is 3.1 (2.4) in test [1] (setting [2]) and 2.1 (0.9) in test [1] (setting [3]). Moreover, the “Mean (SEM) engraftment of CD34+CD38+ cells, Marrow” value (from here on “Mean (SEM) engraftment … Marrow”) in test [1] (setting [2]) is recorded as 21.23 (2.4); in test [1] (setting [3]) it was 28.8 (10.7). The results for the “Mean (SEM) engraftment of CD34+CD38+ cells, Spleen” value (from here on “Mean (SEM) engraftment … Spleen”) in test [1] (setting [2]) and in test [1] (setting [3]) were 0.2 (0.07) and 2.0 (0.8), respectively. For the same molecule, the “effect on marrow LSC engraftment compared to vehicle treated controls” value in test [1] is recorded as “no significant effect”. The “2° TP - Median survival” value in the test on BC LSC (High dose treatment) was determined as 43 days; in the test on BC LSC (Low dose treatment) it was 79 days.

For the molecule `Cc1cc2c(C(=O)NC[C@H](C)c3ccccc3)c(O)c(O)cc2c(O)c1-c1c(C)cc2c(C(=O)NC[C@H](C)c3ccccc3)c(O)c(O)cc2c1O` [Sabutoclax], the “LSC engraftment in all hematopoietic tissues including bone marrow” value in test [1] (5 mg/kg, FIG. 5b) is “significantly reduced”. In addition, in test [1] (setting [2]), the “Mean (SEM) engraftment … Blood” value was 24.5 (17.6); the “Mean (SEM) engraftment … Marrow” value was 30.01 (23.2); the “Mean (SEM) engraftment … Spleen” value is 5.1 (1.5). In addition, in test [1] (setting [3]), the “Mean (SEM) engraftment … Blood” value is 11.0 (3.8); the “Mean (SEM) engraftment … Marrow” value was 34.2 (12.5); the “Mean (SEM) engraftment … Spleen” value is 12 (2.7). In test [1], the “effect on marrow LSC engraftment compared to vehicle treated controls” value is recorded as “no significant effect”. Further, the “TUNEL+ apoptotic cells in engrafted marrow” value with BC LSC-engrafted marrow is “increased”. The “G2/S cells in engrafted marrow” value in the test with marrow-engrafted BC LSC is recorded as “slight increase”. Moreover, the “2° TP - Median survival” value in the test on BC LSC (High dose treatment) was 45 days. The “2° TP - Median survival” value in the test with BC LSC (Low dose treatment) is recorded as 74 days. In addition, in the test on BCL2 and MCL1, the “BCL2 and MCL1 immunopositive cells in BC LSC-engrafted marrow” value was “reduced amount”.
